Experimental data published in US10426850B2, “Collagen mimetic peptides for targeting collagen strands for in vitro and in vivo imaging and therapeutic use” (The Johns Hopkins University, priority 2011, dated 2019).
Entries after “also recorded” stand apart in the source; their conditions may differ.

Key:
[1] = target: T1, MMP-1 cleaved type I collagen (Rattus norvegicus, UniProt P02454+P02466); assay: Photo-triggered CMP binding assay on MMP-1 digested collagen; conditions: MMP-1 digested collagens after the 37° C. incubation; UV-activated
T1 construct: purchased BD Science (collagen); EMD Millipore (ProMMP-1); host or cells: rat tail; digested in house
Protocol: MMP-1 digestion of type I collagen and CMP binding assays. ProMMP-1 (1 μg, EMD Millipore) was activated by p-aminophenylmercuric acetate (1.1 mM) in 132.5 μL of TNC buffer (50 mM Tris-HCl, 0.15 M NaCl, 5 mM CaCl2, 0.02% NaN3, pH 7.5) at 37° C. for 3 hr. Type I collagen (62.6 μg) was subsequently added to the MMP-1 solution and incubated at room temperature for at least 3 days. Digested products were analyzed by SDS-PAGE and circular dichroism spectroscopy (FIG. 12). Wells of nunc black 96-well maxisorp plate were charged with 50 μL of TNC buffer containing 0.5 M glycerol, and 100 μg/mL collagen or MMP-1 cleaved collagen, and incubated at room temperature. The collagen solutions used were either kept at room temperature (22° C.) or incubated at 37° C. for 1 minute just prior to coating. […] Wells were washed extensively with PBSB followed by fluorescence (ex: 489 nm, em: 533 nm) reading with a SpectraMax M-2 microplate reader (Molecular Devices). […] The background fluorescence of empty wells was subtracted from the raw fluorescence data. For estimating the amount of adsorbed protein, un-blocked collagen-coated wells were treated with 100 μM 5-(4,6-dichlorotriazinyl)aminofluorescein (DTAF, 50 μL, in 0.1 M sodium borate buffer) at room temperature for 3 hours, and the fluorescence (ex: 489 nm, em: 533 nm) of the well was measured after washing with 1×PBS. […]

[2] = target: T2, complement factor C1q (Homo sapiens, UniProt P02745+P02746+P02747); assay: SDS-PAGE staining of collagen-like protein C1q; assay type: binding; conditions: 6 μM, heat activated, 2 μg
T2 construct: Complement component C1q from human serum; purchased Sigma-Aldrich; host or cells: human serum
From the text: Acid soluble rat-tail type I collagen, bovine type II collagen, and mouse type IV collagen were purchased from BD Bioscience (San Jose, Calif.). Complement component C1q from human serum, fibronectin from bovine plasma, and laminin from Engelbreth-Holm-Swarm murine sarcoma basement membrane were purchased from Sigma-Aldrich. ProMMP-1, and p-aminophenylmercuric acetate were acquired from EMD millipore. Human umbilical vein endothelial cells (HUVECs) and EGM-2 cell growth media were obtained from Lonza (Walkersville, Md.). Precast NuPAGE® Novex 4-12% Bis-Tris Gel (1.0 mm, 12 well), Novex® Sharp unstained protein standard, and SDS-PAGE running buffer, sample buffer, and other SDS-PAGE reagents were purchased from Life Technologies.
(§1) SDS-PAGE staining and imaging. Proteins were resolved on NuPAGE® Novex 4-12% bis-tris gels under denaturating conditions using an XCell SureLock™ Mini-Cell electrophoresis system (Life Technologies). NuPAGE® MOPS SDS running buffer containing 50 mM MOPS, 50 mM Tris Base, 0.1% SDS, and 1 mM EDTA (pH 7.7) was used. […] The fluorescence intensities of the protein bands were quantified using GE ImageQuant™ TL software. After fluorescence imaging, all gels were further stained with coomassie brilliant blue (CB) G-250 (Bio-Rad) for 2-3 hr followed by washing, and imaging under white light illumination using a Gel Doc EQ system (BioRad).

[3] = tested on: streptococcal collagen-like protein Scl2.28CL; assay: SDS-PAGE staining of collagen-like protein Scl2.28CL; assay type: binding, Streptococcus pyogenes; conditions: 6 μM, heat activated, 2.5 μg, gel fixed with glutaraldehyde
Protocol: To prepare MMP-1 cleaved collagen chain fragments, proMMP-1 (1 μg) was activated by p-aminophenylmercuric acetate (1.1 mM) in 132.5 μL of TNC buffer (50 mM Tris-HCl, 0.15 M NaCl, 5 mM CaCl2, 0.02% NaN3, pH 7.5) at 37° C. for 3 hr, after which type I collagen (62.6 μg) was added to the activated MMP-1 solution and incubated at room temperature for at least 3 days. To obtain the cell lysate, confluent HUVECs cultured in EGM-2 media at 37° C. were lysed with lysis buffer (25 mM Tris-HCl, 0.5% Triton X-100, 200 mM NaCl, 2 mM EDTA, phosphatase and protease inhibitors; Roche Applied Science). The lysate solution was spun at 15,000 g for 15 min and the supernatant was collected. The recombinant streptococcal collagen-like protein Scl2.28CL was expressed and characterized following the methods introduced by Mohs et al. (J. Biol. Chem. 282, 29757-29765 (2007)).
as §1, with “Technologies).” for “Technologies). NuPAGE® MOPS SDS running buffer containing 50 mM MOPS, 50 mM Tris Base, 0.1% SDS, and 1 mM EDTA (pH 7.7) was used.”

T2 sequence (P02745 23-245): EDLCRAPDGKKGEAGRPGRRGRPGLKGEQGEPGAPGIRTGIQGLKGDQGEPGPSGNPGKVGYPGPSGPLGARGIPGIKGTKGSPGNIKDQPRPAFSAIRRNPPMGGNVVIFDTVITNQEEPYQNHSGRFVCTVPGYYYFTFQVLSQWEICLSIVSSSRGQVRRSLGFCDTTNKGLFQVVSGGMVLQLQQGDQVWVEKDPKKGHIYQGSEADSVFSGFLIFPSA
T2 sequence (P02746 28-253): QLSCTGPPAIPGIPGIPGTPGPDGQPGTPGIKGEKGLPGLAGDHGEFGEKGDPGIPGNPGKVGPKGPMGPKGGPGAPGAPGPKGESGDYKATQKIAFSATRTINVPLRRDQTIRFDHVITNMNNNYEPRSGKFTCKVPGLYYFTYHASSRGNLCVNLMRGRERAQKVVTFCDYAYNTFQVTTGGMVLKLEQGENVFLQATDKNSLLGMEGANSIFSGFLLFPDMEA
T2 sequence (P02747 29-245): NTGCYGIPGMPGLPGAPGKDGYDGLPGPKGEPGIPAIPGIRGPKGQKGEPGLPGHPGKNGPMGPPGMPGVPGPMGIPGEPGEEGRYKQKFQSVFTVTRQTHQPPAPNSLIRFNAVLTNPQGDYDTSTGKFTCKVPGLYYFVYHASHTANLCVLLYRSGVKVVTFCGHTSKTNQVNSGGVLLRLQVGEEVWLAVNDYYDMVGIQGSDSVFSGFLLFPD
T1 sequence (P02454 152-942 limits assumed): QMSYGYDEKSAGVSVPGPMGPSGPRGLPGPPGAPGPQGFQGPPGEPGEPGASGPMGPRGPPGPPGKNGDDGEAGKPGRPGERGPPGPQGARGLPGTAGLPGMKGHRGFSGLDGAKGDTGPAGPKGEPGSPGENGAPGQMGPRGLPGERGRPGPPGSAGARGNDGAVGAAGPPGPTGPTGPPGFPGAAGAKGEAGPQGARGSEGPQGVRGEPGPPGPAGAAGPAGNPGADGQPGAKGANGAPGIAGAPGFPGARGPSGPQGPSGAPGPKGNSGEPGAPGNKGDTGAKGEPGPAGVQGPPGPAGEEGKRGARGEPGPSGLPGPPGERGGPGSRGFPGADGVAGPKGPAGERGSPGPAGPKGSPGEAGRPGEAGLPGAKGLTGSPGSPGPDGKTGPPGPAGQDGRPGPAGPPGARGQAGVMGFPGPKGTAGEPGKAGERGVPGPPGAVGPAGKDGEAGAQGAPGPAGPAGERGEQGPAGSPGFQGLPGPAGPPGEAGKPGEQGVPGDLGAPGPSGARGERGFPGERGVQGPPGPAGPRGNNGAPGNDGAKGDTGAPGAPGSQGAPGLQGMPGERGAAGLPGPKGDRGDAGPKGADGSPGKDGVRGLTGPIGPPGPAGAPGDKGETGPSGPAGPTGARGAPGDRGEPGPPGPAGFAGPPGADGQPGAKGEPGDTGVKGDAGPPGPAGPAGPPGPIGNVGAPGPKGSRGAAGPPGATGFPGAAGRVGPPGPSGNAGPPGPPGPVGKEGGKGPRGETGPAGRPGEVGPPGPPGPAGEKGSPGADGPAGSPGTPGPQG
T1 sequence (P02454 943-1207 limits assumed): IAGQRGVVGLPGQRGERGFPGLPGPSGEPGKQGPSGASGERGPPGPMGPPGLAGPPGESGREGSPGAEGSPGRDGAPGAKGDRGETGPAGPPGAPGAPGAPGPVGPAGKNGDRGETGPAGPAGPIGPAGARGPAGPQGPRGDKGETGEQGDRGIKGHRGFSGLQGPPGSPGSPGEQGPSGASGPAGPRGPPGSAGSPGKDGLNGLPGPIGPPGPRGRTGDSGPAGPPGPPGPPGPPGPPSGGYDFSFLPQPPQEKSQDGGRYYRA
T1 sequence (P02466 86-871 limits assumed): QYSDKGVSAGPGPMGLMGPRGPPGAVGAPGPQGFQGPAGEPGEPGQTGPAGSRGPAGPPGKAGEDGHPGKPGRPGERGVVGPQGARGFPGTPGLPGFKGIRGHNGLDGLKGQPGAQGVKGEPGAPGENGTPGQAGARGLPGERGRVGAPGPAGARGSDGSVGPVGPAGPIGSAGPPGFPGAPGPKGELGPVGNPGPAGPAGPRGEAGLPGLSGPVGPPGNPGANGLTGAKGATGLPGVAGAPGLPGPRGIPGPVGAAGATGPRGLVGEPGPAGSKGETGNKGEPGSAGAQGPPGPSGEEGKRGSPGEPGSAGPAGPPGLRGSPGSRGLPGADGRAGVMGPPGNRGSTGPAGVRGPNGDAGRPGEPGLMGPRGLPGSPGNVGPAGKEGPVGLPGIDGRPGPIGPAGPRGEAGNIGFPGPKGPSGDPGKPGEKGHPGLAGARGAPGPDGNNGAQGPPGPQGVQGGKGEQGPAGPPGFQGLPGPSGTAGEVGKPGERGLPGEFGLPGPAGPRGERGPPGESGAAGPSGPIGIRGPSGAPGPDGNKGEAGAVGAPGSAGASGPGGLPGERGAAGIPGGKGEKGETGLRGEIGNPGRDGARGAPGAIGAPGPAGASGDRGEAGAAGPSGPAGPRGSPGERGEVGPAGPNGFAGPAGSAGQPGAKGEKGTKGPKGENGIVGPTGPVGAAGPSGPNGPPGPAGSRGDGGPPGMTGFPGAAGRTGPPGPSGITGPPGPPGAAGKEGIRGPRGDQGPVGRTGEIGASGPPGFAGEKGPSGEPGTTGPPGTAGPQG
T1 sequence (P02466 872-1125 limits assumed): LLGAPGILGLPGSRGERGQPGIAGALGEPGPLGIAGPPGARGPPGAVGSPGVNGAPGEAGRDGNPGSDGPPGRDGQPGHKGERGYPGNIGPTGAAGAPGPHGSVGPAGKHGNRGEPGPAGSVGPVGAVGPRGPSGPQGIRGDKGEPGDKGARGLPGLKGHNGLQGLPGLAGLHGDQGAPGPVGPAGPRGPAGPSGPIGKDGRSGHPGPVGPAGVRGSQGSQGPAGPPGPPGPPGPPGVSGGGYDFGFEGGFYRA

Row | level of CMP binding, fold higher compared to all other collagens tested [1] | Substance | staining of C1q chains [2] | staining of Scl2.28CL bands [3]
1 | 4-10 fold | CF-GGG-(GPO)4^NBGPO(GPO)4 [CF^NB(GPO)9] |  | 
2 |  | CF-GGG-(GPO)9 [CF(GPO)9] | almost as effectively as collagens | failed to stain; also recorded: almost no staining of the Scl2.28CL band
